Test results as given in patent publication US20210392895A1, “NOVEL OXADIAZOLES” (PI INDUSTRIES LIMITED, priority 2018, published 2021).

Test system: Pyricularia oryzae
Experiment: microbe, parasite or virus in culture
Format: cell-based
Conditions: 168 h, read-out: control

Structure (SMILES) | inhibition of growth at 300 ppm
O=C(c1ccccc1F)N1CCC(Oc2ccc(-c3noc(C(F)(F)F)n3)cc2)CC1 [Compound 92, (2-fluorophenyl)(4-(4-(5-(trifluoromethyl)-1,2,4-oxadiazol-3-yl)phenoxy)piperidin-1-yl)methanone] | > 70%
COc1ccc(CC(=O)N2CC[C@H](Oc3ccc(-c4noc(C(F)(F)F)n4)cc3)C2)cc1OC [Compound 5, (S)-2-(3,4-dimethoxyphenyl)-1-(3-(4-(5-(trifluoromethyl)-1,2,4-oxadiazol-3-yl)phenoxy)pyrrolidin-1-yl)ethan-1-one] | > 70%
CC(=O)N1CC(N(c2ccc(-c3noc(C(F)(F)F)n3)cc2)c2ccc(-c3noc(C(F)(F)F)n3)cc2)C1 [Compound 90, 1-(3-(bis(4-(5-(trifluoromethyl)-1,2,4-oxadiazol-3-yl)phenyl)amino)azetidin-1-yl)ethan-1-one] | > 70%
COc1cccc(S(=O)(=O)N2CC(N(C)c3ccc(-c4noc(C(F)(F)F)n4)cc3)C2)c1 [Compound 198, 1-((3-methoxyphenyl)sulfonyl)-N-methyl-N-(4-(5-(trifluoromethyl)-1,2,4-oxadiazol-3-yl)phenyl)azetidin-3-amine] | > 70%
CCS(=O)(=O)N1CC[C@H](Oc2ccc(-c3noc(C(F)(F)F)n3)cc2)C1 [Compound 40, (S)-3-(4-((1-(ethylsulfonyl)pyrrolidin-3-yl)oxy)phenyl)-5-(trifluoromethyl)-1,2,4-oxadiazole] | > 70%
O=C(c1ccncc1)N1CC[C@@H](Oc2ccc(-c3noc(C(F)(F)F)n3)cn2)C1 [Compound 78, (R)-pyridin-4-yl(3-((5-(5-(trifluoromethyl)-1,2,4-oxadiazol-3-yl)pyridin-2-yl)oxy)pyrrolidin-1-yl)methanone] | > 70%
O=C(c1ccncc1)N1CCC(Oc2ccc(-c3noc(C(F)(F)F)n3)cc2)CC1 [Compound 179, pyridin-4-yl(4-(4-(5-(trifluoromethyl)-1,2,4-oxadiazol-3-yl)phenoxy)piperidin-1-yl)methanone] | > 70%
Cc1cccc(C(=O)N2CC[C@@H](Sc3ccc(-c4noc(C(F)(F)F)n4)cc3)C2)c1 [Compound 172, (R)-m-tolyl(3-((4-(5-(trifluoromethyl)-1,2,4-oxadiazol-3-yl)phenyl)thio)pyrrolidin-1-yl)methanone] | > 70%
O=C(c1ccccc1)N1CC[C@@H](Sc2ccc(-c3noc(C(F)(F)F)n3)cc2)C1 [Compound 177, (R)-phenyl(3-((4-(5-(trifluoromethyl)-1,2,4-oxadiazol-3-yl)phenyl)thio)pyrrolidin-1-yl)methanone] | > 70%
CN(c1ccc(-c2noc(C(F)(F)F)n2)cc1)C1CCN(C(=O)OC(C)(C)C)C1 (centres unmarked) [Compound 167, tert-butyl 3-(methyl(4-(5-(trifluoromethyl)-1,2,4-oxadiazol-3-yl)phenyl)amino)pyrrolidine-1-carboxylate] | > 70%
Cc1ccc(C(=O)N2CCC(Oc3cccc(-c4noc(C(F)(F)F)n4)c3)C2)cc1 (centres unmarked) [Compound 135, p-tolyl(3-(3-(5-(trifluoromethyl)-1,2,4-oxadiazol-3-yl)phenoxy)pyrrolidin-1-yl)methanone] | > 70%

Test system: Phakopsora pachyrhizi
Experiment: Phakopsora pachyrhizi test in soybean (greenhouse, preventive activity, disease severity rating)
Format: in vivo
Conditions: preventive spray on soybean, compared to the untreated check
Description: To test the preventive activity of compounds, healthy young soybean plants, raised in the greenhouse, were sprayed with the active compound solution at the stated application rates inside spray cabinets using hallowcone nozzles. One day after treatment, the plants were inoculated with a suspension containing 2.1×10^6 Phakopsora pachyrhizi spores. The inoculated plants were then kept in the greenhouse chamber at 25° C. temperature and 90% relative humidity for disease expression. A visual assessment of the compound's performance was carried out by rating the disease severity (0-100% scale) on treated plants on 3, 7, 10 and 15 days after application. Efficacy (% control) of the compounds was calculated by comparing the disease rating in the treatment with the one of the untreated control. The treated plants were also assessed for plant compatibility by recording symptoms like necrosis, chlorosis and stunting.

Structure (SMILES) | pest or weed control at 500 ppm
COc1ccc(CC(=O)N2CC[C@H](Oc3ccc(-c4noc(C(F)(F)F)n4)cc3)C2)cc1OC [Compound 5, (S)-2-(3,4-dimethoxyphenyl)-1-(3-(4-(5-(trifluoromethyl)-1,2,4-oxadiazol-3-yl)phenoxy)pyrrolidin-1-yl)ethan-1-one] | > 70%
O=S(=O)(c1ccc(Cl)cc1Cl)N1CC[C@H](Oc2ccc(-c3noc(C(F)(F)F)n3)cc2)C1 [Compound 120, (S)-3-(4-((1-((2,4-dichlorophenyl)sulfonyl)pyrrolidin-3-yl)oxy)phenyl)-5-(trifluoromethyl)-1,2,4-oxadiazole] | > 70%
O=C(Nc1ccccc1F)N1CC[C@H](Oc2ccc(-c3noc(C(F)(F)F)n3)cc2)C1 [Compound 37, (S)—N-(2-fluorophenyl)-3-(4-(5-(trifluoromethyl)-1,2,4-oxadiazol-3-yl)phenoxy)pyrrolidine-1-carboxamide] | > 70%
O=S(=O)(c1ccc(F)cc1)N1CC[C@H](Oc2ccc(-c3noc(C(F)(F)F)n3)cc2)C1 [Compound 35, (S)-3-(4-((1-((4-fluorophenyl)sulfonyl)pyrrolidin-3-yl)oxy)phenyl)-5-(trifluoromethyl)-1,2,4-oxadiazole] | > 70%
COc1ccc(S(=O)(=O)N2CC[C@H](Oc3ccc(-c4noc(C(F)(F)F)n4)cc3)C2)cc1 [Compound 34, (S)-3-(4-((1-((4-methoxyphenyl)sulfonyl)pyrrolidin-3-yl)oxy)phenyl)-5-(trifluoromethyl)-1,2,4-oxadiazole] | > 70%
Cc1ccc(S(=O)(=O)N2CC[C@H](Oc3ccc(-c4noc(C(F)(F)F)n4)cn3)C2)cc1 [Compound 107, (S)-3-(6-((1-tosylpyrrolidin-3-yl)oxy)pyridin-3-yl)-5-(trifluoromethyl)-1,2,4-oxadiazole] | > 70%
O=C(c1ccccc1F)N1CC[C@H](Oc2ccc(-c3noc(C(F)(F)F)n3)cc2F)C1 [Compound 52, (S)-(3-(2-fluoro-4-(5-(trifluoromethyl)-1,2,4-oxadiazol-3-yl)phenoxy)pyrrolidin-1-yl)(2-fluorophenyl)methanone] | > 70%
O=C(c1cccc(F)c1)N1CC[C@H](Oc2ccc(-c3noc(C(F)(F)F)n3)nc2)C1 [Compound 30, (S)-(3-fluorophenyl)(3-((6-(5-(trifluoromethyl)-1,2,4-oxadiazol-3-yl)pyridin-3-yl)oxy)pyrrolidin-1-yl)methanone] | > 70%
O=S(=O)(c1ccc(Br)cc1)N1CC[C@H](Oc2ccc(-c3noc(C(F)(F)F)n3)cc2)C1 [Compound 116, (S)-3-(4-((1-((4-bromophenyl)sulfonyl)pyrrolidin-3-yl)oxy)phenyl)-5-(trifluoromethyl)-1,2,4-oxadiazole] | > 70%
CN(c1ccc(-c2noc(C(F)(F)F)n2)cc1)C1CN(C(=O)c2ccc(F)cc2)C1 [Compound 124, (4-fluorophenyl)(3-(methyl(4-(5-(trifluoromethyl)-1,2,4-oxadiazol-3-yl)phenyl)amino)azetidin-1-yl)methanone] | > 70%
O=S(=O)(c1ccccc1F)N1CC[C@H](Oc2ccc(-c3noc(C(F)(F)F)n3)cc2)C1 [Compound 33, (S)-3-(4-((1-((2-fluorophenyl)sulfonyl)pyrrolidin-3-yl)oxy)phenyl)-5-(trifluoromethyl)-1,2,4-oxadiazole] | > 70%
O=S(=O)(c1cccc(C(F)(F)F)c1)N1CC[C@H](Oc2ccc(-c3noc(C(F)(F)F)n3)cn2)C1 [Compound 151, (S)-5-(trifluoromethyl)-3-(6-((1-((3-(trifluoromethyl)phenyl)sulfonyl)pyrrolidin-3-yl)oxy)pyridin-3-yl)-1,2,4-oxadiazole] | > 70%
O=C(c1ccc(C(F)(F)F)cc1)N1CCC(Oc2ccc(-c3noc(C(F)(F)F)n3)cc2)CC1 [Compound 102, (4-(4-(5-(trifluoromethyl)-1,2,4-oxadiazol-3-yl)phenoxy)piperidin-1-yl)(4-(trifluoromethyl)phenyl)methanone] | > 70%
CN(c1ccc(-c2noc(C(F)(F)F)n2)cc1)C1CN(C(=O)c2cccc(Cl)c2)C1 [Compound 88, (3-chlorophenyl)(3-(methyl(4-(5-(trifluoromethyl)-1,2,4-oxadiazol-3-yl)phenyl)amino)azetidin-1-yl)methanone] | > 70%
O=C(c1cccc(F)c1)N1CC(Oc2ccc(-c3noc(C(F)(F)F)n3)cc2)C1 [Compound 18, (3-fluorophenyl)(3-(4-(5-(trifluoromethyl)-1,2,4-oxadiazol-3-yl)phenoxy)azetidin-1-yl)methanone] | > 70%
O=S(=O)(Cc1ccccc1)N1CC(Oc2ccc(-c3noc(C(F)(F)F)n3)cc2)C1 [Compound 22, 3-(4-((1-(benzylsulfonyl)azetidin-3-yl)oxy)phenyl)-5-(trifluoromethyl)-1,2,4-oxadiazole] | > 70%
O=S(=O)(c1cccc(Cl)c1)N1CC[C@H](Oc2ccc(-c3noc(C(F)(F)F)n3)cc2)C1 [Compound 122, (S)-3-(4-((1-((3-chlorophenyl)sulfonyl)pyrrolidin-3-yl)oxy)phenyl)-5-(trifluoromethyl)-1,2,4-oxadiazole] | > 70%
O=S(=O)(c1ccc(F)cc1F)N1CC[C@H](Oc2ccc(-c3noc(C(F)(F)F)n3)cc2)C1 [Compound 42, (S)-3-(4-((1-((2,4-difluorophenyl)sulfonyl)pyrrolidin-3-yl)oxy)phenyl)-5-(trifluoromethyl)-1,2,4-oxadiazole] | > 70%
CN(c1ccc(-c2noc(C(F)(F)F)n2)cc1)C1CN(C(=O)OC(C)(C)C)C1 [Compound 80, tert-butyl 3-(methyl(4-(5-(trifluoromethyl)-1,2,4-oxadiazol-3-yl)phenyl)amino)azetidine-1-carboxylate] | > 70%
CC(C)(C)OC(=O)N1CC[C@H](Oc2ccc(-c3noc(C(F)(F)F)n3)c(F)c2)C1 [Compound 62, tert-butyl (S)-3-(3-fluoro-4-(5-(trifluoromethyl)-1,2,4-oxadiazol-3-yl)phenoxy)pyrrolidine-1-carboxylate] | > 70%
O=C(c1ccccc1F)N1CC[C@@H](Oc2ccc(-c3noc(C(F)(F)F)n3)cn2)C1 [Compound 74, (R)-(2-fluorophenyl)(3-((5-(5-(trifluoromethyl)-1,2,4-oxadiazol-3-yl)pyridin-2-yl)oxy)pyrrolidin-1-yl)methanone] | > 70%
